Series [1] in a line: Compound was evaluated for pharmacokinetic parameter percent bioavailability at 8 h. The format is ADME, organism-based. The note with it: rat, in vivo.
Series [2] relates to Rattus norvegicus. In words: In vivo clearance after 5 mg/kg dose. Set-up: dose 5 mg/kg. The format is ADME, organism-based.
Series [3] has as its system Mus musculus. The series can be described thus: Tested in vivo for inhibition ofTCR stimulated (alpha-CD3 mAb) IL-2 production in mice after oral dosing for 18 hr. The arrangement: concentration or dose not given beside the values. The format is functional.
Series [4] concerns the target T1, Vascular endothelial growth factor receptor 2 (Homo sapiens, UniProt P35968). The series can be described thus: Inhibition of Vascular endothelial growth factor receptor 2.
Series [5] concerns the target Tyrosine-protein kinase Lck (Homo sapiens, UniProt P06239). In words: Inhibition of human p56 Lck tyrosine kinase.
The nature of series [6]: Compound was evaluated for pharmacokinetic parameter volume of distribution. The format is ADME, organism-based. The note with it: rat, in vivo.
For series [7], the species on record is Rattus norvegicus. The series can be described thus: Compound was evaluated for pharmacokinetic parameter maximum plasma concentration. Particulars: in vivo. It counts as ADME, organism-based.
Series [8] relates to Mus musculus. The series can be described thus: Tested in vivo for inhibition ofTCR stimulated (alpha-CD3 mAb) IL-2 production in mice after oral dosing for 8 hr. It counts as functional. Set-up: concentration or dose not given beside the values.
The nature of series [9]: Compound was evaluated for pharmacokinetic parameter percent bioavailability at 18 h. It counts as ADME, organism-based. The note with it: rat, in vivo.
Series [10] in a line: Compound was evaluated for pharmacokinetic parameter maximum time period. It counts as ADME, organism-based. The note with it: rat, in vivo.
Series [11] has as its system Mus musculus. In words: Tested in vivo for inhibition ofTCR stimulated (alpha-CD3 mAb) IL-2 production in mice after oral dosing. The format is functional.
For another series, the species on record is Homo sapiens. The series can be described thus: Inhibition of alpha-CD3 mAb induced IL-2 production in human whole blood. The format is functional, organism-based.
Series [12] addresses T1, Vascular endothelial growth factor receptor 2. The series can be described thus: Inhibition of human VEGF-receptor 2 (kdr) kinase.
The target of series [13] is Proto-oncogene tyrosine-protein kinase Src (Homo sapiens, UniProt P12931). In words: Inhibition of Src protein tyrosine kinase.
Sequence of Proto-oncogene tyrosine-protein kinase Src (P12931 2-536 limits assumed): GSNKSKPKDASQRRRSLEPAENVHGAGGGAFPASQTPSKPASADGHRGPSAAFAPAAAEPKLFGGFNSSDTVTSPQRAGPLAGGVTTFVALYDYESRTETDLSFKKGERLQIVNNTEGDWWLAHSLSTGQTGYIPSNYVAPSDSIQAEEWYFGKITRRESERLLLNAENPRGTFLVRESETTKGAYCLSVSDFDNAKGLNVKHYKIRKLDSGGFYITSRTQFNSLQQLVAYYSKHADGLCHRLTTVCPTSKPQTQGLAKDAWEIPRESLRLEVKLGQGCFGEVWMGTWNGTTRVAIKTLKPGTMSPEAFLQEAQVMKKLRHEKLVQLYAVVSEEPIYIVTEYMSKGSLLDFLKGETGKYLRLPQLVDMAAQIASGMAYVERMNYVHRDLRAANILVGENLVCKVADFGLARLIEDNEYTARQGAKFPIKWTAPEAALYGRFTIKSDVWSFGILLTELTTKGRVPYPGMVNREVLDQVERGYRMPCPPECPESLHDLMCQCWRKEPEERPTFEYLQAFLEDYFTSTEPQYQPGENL
The target of a further series is Angiopoietin-1 receptor (Homo sapiens, UniProt Q02763). The series can be described thus: Inhibition of TIE-2 kinase.
Sequence of Angiopoietin-1 receptor (Q02763 whole entry): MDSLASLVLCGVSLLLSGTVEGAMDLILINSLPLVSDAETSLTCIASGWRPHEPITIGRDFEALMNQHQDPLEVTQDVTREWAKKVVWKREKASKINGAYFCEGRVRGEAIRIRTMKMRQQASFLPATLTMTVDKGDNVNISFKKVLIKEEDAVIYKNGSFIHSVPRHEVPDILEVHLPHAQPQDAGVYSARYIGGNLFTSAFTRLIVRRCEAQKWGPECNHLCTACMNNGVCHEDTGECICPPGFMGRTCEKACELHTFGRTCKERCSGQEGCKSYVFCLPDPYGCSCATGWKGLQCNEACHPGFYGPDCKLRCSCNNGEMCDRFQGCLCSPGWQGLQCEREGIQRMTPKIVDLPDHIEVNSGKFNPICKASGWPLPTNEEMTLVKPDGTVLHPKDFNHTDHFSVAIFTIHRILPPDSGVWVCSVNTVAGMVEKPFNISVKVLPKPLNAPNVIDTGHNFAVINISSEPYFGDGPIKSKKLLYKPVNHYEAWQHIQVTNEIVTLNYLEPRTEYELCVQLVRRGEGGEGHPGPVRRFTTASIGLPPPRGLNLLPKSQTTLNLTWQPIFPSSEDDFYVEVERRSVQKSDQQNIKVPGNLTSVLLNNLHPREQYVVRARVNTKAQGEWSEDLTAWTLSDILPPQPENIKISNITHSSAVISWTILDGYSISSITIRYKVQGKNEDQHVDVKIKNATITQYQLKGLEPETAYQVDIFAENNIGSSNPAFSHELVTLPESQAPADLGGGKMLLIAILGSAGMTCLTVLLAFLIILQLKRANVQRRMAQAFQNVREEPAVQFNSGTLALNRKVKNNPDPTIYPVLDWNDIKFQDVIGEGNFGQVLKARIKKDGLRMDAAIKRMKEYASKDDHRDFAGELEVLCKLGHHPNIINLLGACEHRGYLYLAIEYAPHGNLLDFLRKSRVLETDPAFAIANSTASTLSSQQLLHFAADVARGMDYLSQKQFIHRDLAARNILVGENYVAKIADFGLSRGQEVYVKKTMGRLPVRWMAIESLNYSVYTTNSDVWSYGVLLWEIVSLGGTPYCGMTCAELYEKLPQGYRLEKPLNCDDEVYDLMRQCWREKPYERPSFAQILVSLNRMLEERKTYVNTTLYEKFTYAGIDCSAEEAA

Usually half-life stands for how long it takes for the measured level to halve. Usually Inhibition stands for the relative decrease from the control value, in per cent. Broadly, the IC50 is the concentration that inhibits the measured activity by half. By Vd is commonly meant a proportionality between amount in the body and measured concentration, not a real space. By bioavailability is commonly meant dose-corrected exposure relative to a reference, in per cent. Broadly, the Tmax is the time at which the peak concentration occurs. What is called ED50 is the dose at which the effect has come halfway, by size or by number of responders.

Sequence of Tyrosine-protein kinase Lck (P06239 whole entry): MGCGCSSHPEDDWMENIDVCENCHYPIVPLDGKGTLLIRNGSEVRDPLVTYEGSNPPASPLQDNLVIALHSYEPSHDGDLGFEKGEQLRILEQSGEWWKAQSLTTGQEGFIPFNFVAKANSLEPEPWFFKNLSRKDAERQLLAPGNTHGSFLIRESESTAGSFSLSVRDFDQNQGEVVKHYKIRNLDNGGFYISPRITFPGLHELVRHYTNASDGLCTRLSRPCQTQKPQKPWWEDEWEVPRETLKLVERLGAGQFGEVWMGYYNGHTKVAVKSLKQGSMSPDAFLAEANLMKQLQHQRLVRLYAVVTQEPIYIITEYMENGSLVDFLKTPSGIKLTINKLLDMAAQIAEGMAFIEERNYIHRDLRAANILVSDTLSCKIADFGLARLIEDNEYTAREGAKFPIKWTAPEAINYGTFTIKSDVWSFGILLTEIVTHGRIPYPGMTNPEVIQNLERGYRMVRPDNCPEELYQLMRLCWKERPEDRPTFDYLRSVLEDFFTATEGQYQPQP
T1 sequence (P35968 whole entry): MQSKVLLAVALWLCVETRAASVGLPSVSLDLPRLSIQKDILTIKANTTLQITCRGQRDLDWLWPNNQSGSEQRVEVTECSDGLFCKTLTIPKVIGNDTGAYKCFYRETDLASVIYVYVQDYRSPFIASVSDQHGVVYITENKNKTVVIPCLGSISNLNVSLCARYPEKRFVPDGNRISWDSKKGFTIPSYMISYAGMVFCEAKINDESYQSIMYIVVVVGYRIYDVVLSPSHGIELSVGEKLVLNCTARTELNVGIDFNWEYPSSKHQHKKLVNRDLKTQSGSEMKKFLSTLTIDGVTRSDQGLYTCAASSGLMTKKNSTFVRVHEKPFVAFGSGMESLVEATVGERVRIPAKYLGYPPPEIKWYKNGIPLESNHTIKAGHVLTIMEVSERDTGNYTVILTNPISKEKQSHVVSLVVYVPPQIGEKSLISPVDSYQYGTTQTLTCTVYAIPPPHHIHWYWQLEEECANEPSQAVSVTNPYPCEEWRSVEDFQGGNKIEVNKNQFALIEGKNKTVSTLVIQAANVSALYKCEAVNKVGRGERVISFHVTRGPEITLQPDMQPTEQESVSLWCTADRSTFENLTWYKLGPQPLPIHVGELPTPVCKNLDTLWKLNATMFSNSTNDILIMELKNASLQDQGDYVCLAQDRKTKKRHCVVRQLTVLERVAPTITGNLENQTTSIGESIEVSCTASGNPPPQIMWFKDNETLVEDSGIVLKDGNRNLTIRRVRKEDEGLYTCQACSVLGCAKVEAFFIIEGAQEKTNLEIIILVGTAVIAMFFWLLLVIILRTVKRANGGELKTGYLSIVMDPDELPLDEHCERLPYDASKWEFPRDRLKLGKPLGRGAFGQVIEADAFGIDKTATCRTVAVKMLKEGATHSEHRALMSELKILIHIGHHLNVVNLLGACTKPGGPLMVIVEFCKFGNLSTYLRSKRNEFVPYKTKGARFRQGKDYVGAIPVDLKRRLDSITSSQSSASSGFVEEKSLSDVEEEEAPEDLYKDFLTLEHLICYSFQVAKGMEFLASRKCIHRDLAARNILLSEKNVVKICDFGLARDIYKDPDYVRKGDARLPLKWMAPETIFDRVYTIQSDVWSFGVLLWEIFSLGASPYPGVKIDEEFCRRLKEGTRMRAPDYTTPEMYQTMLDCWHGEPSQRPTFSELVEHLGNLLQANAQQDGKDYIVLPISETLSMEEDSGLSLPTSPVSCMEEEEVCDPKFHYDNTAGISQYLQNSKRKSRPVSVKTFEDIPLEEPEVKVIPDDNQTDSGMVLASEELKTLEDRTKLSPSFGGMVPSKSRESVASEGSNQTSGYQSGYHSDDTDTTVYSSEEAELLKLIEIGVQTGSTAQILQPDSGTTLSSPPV

Consider `CN1CCN([C@H]2CC[C@H](n3nc(-c4ccc(Oc5ccccc5)cc4)c4c(N)ncnc43)CC2)CC1`, for which the half-life in [1] was 5.2 h. The compound also gave a Clp with Rattus norvegicus [2] of 20 mL/min/kg. Besides, the Inhibition in the series on Mus musculus [3] is reported as 49%; in the series on Mus musculus [8] it was 84%. Moreover, the half-inhibitory concentration (IC50) was 5320 nM in [4] and 40 nM in series [5]. In addition, the Vd in [6] was determined as 9.6 L/kg. Also, the Cmax in the series filed under Rattus norvegicus [7] was determined as 0.62 uM l-1. The bioavailability in series [9] stood at 69%. For the same compound, the time to peak (Tmax) in series [10] was 1.5 h. Also, the 50% effect level with Mus musculus [11] (ED50) was put at a dose of 1.5 mg/kg. Besides, the ED90 in the series on Mus musculus [11] was 6 mg/kg.

Turning to `COc1cc(-c2nn([C@H]3CC[C@H](N4CCN(C)CC4)CC3)c3ncnc(N)c23)ccc1NC(=O)CC(C)(C)c1ccccc1`, the results for the Inhibition in the series on Mus musculus [3] and in the series on Mus musculus [8] were 22% and 98%, respectively. The compound further showed an ED50 with Mus musculus [11] of 2 mg/kg. The ED90 in the series with Mus musculus [11] worked out at 12.5 mg/kg. For the same compound, the IC50 in the series listed under Homo sapiens came out at 8 nM; in series [12], 34600 nM.

As to `COc1cc(-c2nn([C@H]3CC[C@H](N4CCN(C)CC4)CC3)c3ncnc(N)c23)ccc1NCc1ccccc1`, the figures for the IC50 in series [4] and in series [5] were more than 50000 nM and 55 nM, respectively.

Turning to `COc1cc(-c2nn([C@H]3CC[C@H](N4CCN(C)CC4)CC3)c3ncnc(N)c23)ccc1NC(=O)Nc1ccccc1`, in [12], the IC50 was found to be 263 nM.

The compound `CN1CCN([C@H]2CC[C@H](n3nc(-c4ccc(NCc5cc6ccccc6[nH]5)cc4)c4c(N)ncnc43)CC2)CC1` registered an IC50 in [12] of 435 nM.

`COc1cc(Cc2nn([C@H]3CC[C@H](N4CCN(C)CC4)CC3)c3ncnc(N)c23)ccc1NC(=O)[C@@H]1C[C@H]1c1ccccc1`: the IC50 in series [12] is more than 50000 nM.

The compound `COc1cc(-c2nn([C@H]3CC[C@H](N4CCN(C)CC4)CC3)c3ncnc(N)c23)ccc1NC(=O)C(C)(C)Cc1ccccc1` had an IC50 in series [12] of more than 50000 nM.

With `COc1cc(-c2nn([C@H]3CC[C@H](N4CCN(C)CC4)CC3)c3ncnc(N)c23)ccc1NC(=O)c1cc2ccccc2o1`, the Inhibition in the series on Mus musculus [3] was less than 10%; in the series with Mus musculus [8], 48%. For the same compound, in the series on Mus musculus [11], the ED50 was determined as 8.5 mg/kg. In the series with Mus musculus [11], this compound returned an ED90 of 12.5 mg/kg. Moreover, the IC50 in the series listed under Homo sapiens was 6 nM; in [12] it was more than 50000 nM.

Turning to `COc1cc(-c2nn([C@H]3CC[C@H](N4CCN(C)CC4)CC3)c3ncnc(N)c23)ccc1NC(=O)c1ccccc1`, the Inhibition in the series on Mus musculus [3] is listed as less than 10%; in the series on Mus musculus [8], 37%. It took a dose of 9 mg/kg to reach the 50% effect level with Mus musculus [11] (ED50). In addition, the ED90 with Mus musculus [11] was found to be 23 mg/kg. Besides, the IC50 was 50 nM in the series filed under Homo sapiens and more than 50000 nM in [12].

For `COc1cc(-c2nn([C@H]3CC[C@H](N4CCN(C)CC4)CC3)c3ncnc(N)c23)ccc1NC(=O)OCc1ccccc1`, the Inhibition came out at 14% in the series with Mus musculus [3] and 51% in the series on Mus musculus [8]. Also, the ED50 in the series on Mus musculus [11] was 3 mg/kg. In the series with Mus musculus [11], this compound registered an ED90 of 14 mg/kg. For the same compound, the figures for the IC50 (in the series filed under Homo sapiens; in series [12]) were 2 nM and 34200 nM, respectively.

For `CN1CCN([C@H]2CC[C@H](n3nc(-c4ccc(C(=O)c5ccccc5)cc4)c4c(N)ncnc43)CC2)CC1`, the IC50 in series [12] was more than 50000 nM.

As to `CN1CCN([C@H]2CC[C@H](n3nc(-c4ccc(Nc5ccccc5)cc4)c4c(N)ncnc43)CC2)CC1`, the Inhibition was less than 10% in the series on Mus musculus [3] and 95% with Mus musculus [8]. The compound also displayed an ED50 with Mus musculus [11] of 2.5 mg/kg. For the same compound, in the series with Mus musculus [11], the ED90 worked out at 10.7 mg/kg. Further, the IC50 in the series filed under Homo sapiens was 135 nM; in series [12] it was 3810 nM.

Consider `CN1CCN([C@H]2CC[C@H](n3cc(-c4ccc(Oc5ccccc5)cc4)c4c(N)ncnc43)CC2)CC1`, for which the IC50 in series [5] was determined as 15 nM; in series [13], 42 nM; at Angiopoietin-1 receptor it was 250 nM. The compound further returned an ED50 in the series with Mus musculus [11] of 2.5 mg/kg.

In series [12], `COc1cc(-c2nn([C@H]3CC[C@H](N4CCN(C)CC4)CC3)c3ncnc(N)c23)ccc1NS(=O)(=O)c1ccccc1` returned an IC50 of more than 50000 nM.

Consider `COc1cc(-c2nn([C@H]3CC[C@H](N4CCN(C)CC4)CC3)c3ncnc(N)c23)ccc1NC(=O)CCc1ccccc1`, for which the Inhibition with Mus musculus [3] is less than 10%; with Mus musculus [8], 63%. For the same compound, it took a dose of 5 mg/kg to reach the 50% effect level in the series on Mus musculus [11] (ED50). The compound also yielded an ED90 with Mus musculus [11] of 30 mg/kg. Further, the figures for the IC50 (in the series listed under Homo sapiens; in [12]) were 38 nM and more than 50000 nM, respectively.

Source of the values: ChEMBL document CHEMBL1135159, “Pyrazolo[3,4-d]pyrimidines containing an extended 3-substituent as potent inhibitors of Lck -- a selectivity insight” (Bioorg Med Chem Lett, 2002).
